Measured values from ChEMBL document CHEMBL5390238, “The mechanisms of multidrug resistance of breast cancer and research progress on related reversal agents” (Bioorg Med Chem, 2023).
pIC50: −log10 of the molar value.

Tests used:
NCI/ADR-RES = assay: Cytotoxicity against human MCF7ADR cells; assay type: functional, cell-based
HepG2 = assay: Antiproliferative activity against human HepG2 cells assessed as inhibition of cell growth incubated for 48 hrs by MTT assay; assay type: functional, cell-based; conditions: HepG2, 48 h
[1] = Cytotoxicity against human RL14 cells incubated for 72 hrs by resazurin blue assay; assay type: toxicity, cell-based
HCT-116 = assay: Cytotoxicity against human HCT-116 cells assessed as cell viability measured as mitochondrial NADH-dependent dehydrogenase activity incubated for 72 to 120 hrs; assay type: functional, cell-based
Estrogen receptor = target: T1, Estrogen receptor (Homo sapiens, UniProt P03372); assay: Inhibition of human ERalpha expressed in Saccharomyces cerevisiae co-expressing lacZ using CPRG as substrate incubated for 48 hrs by Colorimetric assay
T1 sequence (P03372 whole entry): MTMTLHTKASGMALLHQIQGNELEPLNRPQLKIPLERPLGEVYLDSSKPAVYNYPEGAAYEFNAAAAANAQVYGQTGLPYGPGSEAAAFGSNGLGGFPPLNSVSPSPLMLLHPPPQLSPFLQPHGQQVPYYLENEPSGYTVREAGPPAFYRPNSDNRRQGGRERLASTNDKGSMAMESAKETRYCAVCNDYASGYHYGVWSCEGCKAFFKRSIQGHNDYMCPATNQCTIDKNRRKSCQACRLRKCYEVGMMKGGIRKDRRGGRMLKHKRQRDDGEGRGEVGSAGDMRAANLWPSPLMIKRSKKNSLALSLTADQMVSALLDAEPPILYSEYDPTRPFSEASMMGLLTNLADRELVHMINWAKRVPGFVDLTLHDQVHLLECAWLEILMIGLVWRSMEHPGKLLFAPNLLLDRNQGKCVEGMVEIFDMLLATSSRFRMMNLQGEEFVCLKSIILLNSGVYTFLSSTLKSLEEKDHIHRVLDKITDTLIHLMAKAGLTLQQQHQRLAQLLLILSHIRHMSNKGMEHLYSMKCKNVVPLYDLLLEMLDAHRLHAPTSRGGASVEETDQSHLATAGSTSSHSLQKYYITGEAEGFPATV

[2] = Antiproliferative activity against human MCF7/BUS cells assessed as cell growth inhibition incubated for 6 days by MTT assay; assay type: functional, cell-based; conditions: 144 h
MCF7 [3] = assay: Antiproliferative activity against human MCF-7 cells assessed as inhibition of cell growth incubated for 48 hrs by MTT assay; assay type: functional, cell-based; conditions: MCF7, 48 h
MCF7 [4] = assay: Cytotoxicity against human MCF7 cells; assay type: functional, cell-based
HeLa = assay: Antiproliferative activity against human HeLa cells assessed as inhibition of cell growth incubated for 72 hrs by MTT assay; assay type: functional, cell-based
MCF7 [5] = assay: Cytotoxicity against human MCF7 cells assessed as inhibition of cell growth in presence of paclitaxel by MTT assay; assay type: functional, cell-based
HaCaT = assay: Cytotoxicity against human HaCaT cells incubated for 72 hrs by MTT assay; assay type: functional, cell-based
[6] = Antiproliferative activity against multidrug resistant human MDA-MB-231/TxR cells assessed as inhibition of cell growth preincubated for 24 hrs followed by taxol treatment for 24 hrs by MTT assay; assay type: functional, cell-based
MCF7 [7] = assay: Antiproliferative activity against human MCF-7 cells assessed as cell growth inhibition; assay type: functional
MDA-MB-231 = assay: Antiproliferative activity against human MDA-MB-231 cells assessed as cell growth inhibition; assay type: functional

O=c1cc(-c2ccc(O)cc2)oc2cc(O)cc(O)c12 [APIGENIN] gave a pIC50 (NCI/ADR-RES) of 6.70.
Compound COc1cc([C@H]2OC[C@H]3[C@@H]2CO[C@@H]3c2ccc(O)c(OC)c2)ccc1O has a pIC50 (HepG2) of 7.29.
Compound COc1cccc2c1C(=O)c1c(O)c3c(c(O)c1C2=O)C[C@@](O)(C(=O)CO)C[C@@H]3O[C@H]1C[C@H](NC(=O)CNC(=O)Oc2ccc(C3=C(O)C(=O)C4C(O)=CC(O)=CC4O3)cc2O)[C@H](O)[C@H](C)O1 (stereo partly specified) has an IC50 at 72 h [1] of 0.005 µM.
COc1ccc(/C(C#N)=C/c2ccc(N3CCC(O)CC3)s2)cc1OC gave a pIC50 (HCT-116) of 8.00.
Work on CCC(Cc1ccc(OC)cc1)=C(c1ccc(O)cc1)c1ccc(OCCCN(C)C)cc1 yielded a pIC50 (Estrogen receptor) of 6.29 and a pIC50 [2] of 7.02.
With CCNCc1ccccc1[Se][Se]c1ccccc1CNCC the pIC50 (MCF7 [3]) was 7.82.
In the case of CO[C@]1(CC[C@H](C)CO[C@@H]2O[C@H](CO)[C@@H](O)[C@H](O)[C@H]2O)O[C@H]2C[C@H]3[C@@H]4CC[C@@H]5C[C@@H](O[C@@H]6O[C@H](CO)[C@H](O[C@@H]7O[C@H](CO)[C@@H](O)[C@H](O[C@@H]8OC[C@@H](O)[C@H](O)[C@H]8O)[C@H]7O[C@@H]7O[C@H](CO)[C@H](O)[C@H](O)[C@H]7O)[C@H](O)[C@H]6O)CC[C@]5(C)[C@H]4CC[C@]3(C)[C@H]2[C@@H]1C, the pIC50 (MCF7 [4]) was 8.28.
With Cc1nc(C)c(COC(=O)[C@]23CCC(C)(C)C[C@H]2C2=CC[C@@H]4[C@@]5(C)CC[C@H](OC(=O)CN)C(C)(C)[C@@H]5CC[C@@]4(C)[C@]2(C)CC3)nc1C the pIC50 (HeLa) was 5.49.
COc1cc(/C=C/C(=O)CC(=O)/C=C/c2ccc(O)c(OC)c2)ccc1O [CURCUMIN] gave a pIC50 (MCF7 [5]) of 7.06.
For CC/C(=C(\c1ccccc1)c1ccc(OCCN(C)C)cc1)c1ccccc1 [TAMOXIFEN], the pIC50 [2] was 6.30.
Work on COc1cc(/C=C/c2ccc(SC)cc2)cc(OC)c1 yielded a pIC50 (HaCaT) of 4.60.
Compound CC(C)=CCC[C@@H](C(=O)O)[C@H]1CC[C@@]2(C)C3=C(CC[C@]12C)[C@@]1(C)CC[C@H](O)C(C)(C)[C@@H]1CC3 [TRAMETENOLIC ACID] has a pIC50 [6] of 6.99.
Oc1ccc(/C=C/c2cc(O)cc(O)c2)cc1 [RESVERATROL] gave a pIC50 (HaCaT) of 3.74.
CCC(Cc1ccccc1)=C(c1ccc(OCCN2CCCC2)cc1)c1ccc(OC(=O)NCc2ccccc2)cc1 showed a GI50 (MCF7 [7]) of 0.09 µM and a GI50 (MDA-MB-231) of 1.84 µM.
